{
  "source": "patent US20240382651A1",
  "about": "“BUPIVACAINE-COLLAGEN DRUG DELIVERY IMPLANT AND METHODS OF MAKING AND USING THEREOF” (INNOCOLL PHARMACEUTICALS LIMITED, priority 2021, published 2024)",
  "experiment": "Genotoxicity studies of bupivacaine HCl (4 in vitro, 2 in vivo)",
  "conditions": "4 in vitro studies and 2 in vivo studies",
  "excerpt": "The distribution, metabolism, and excretion of bupivacaine across species is characterized in the literature including data showing that, following absorption, bupivacaine is rapidly and readily distributed to tissues, with the highest concentrations in highly perfused tissues. In general, the metabolic profile of bupivacaine is similar across species although quantitatively different, with no novel metabolite identified in humans (Goehl, et al., 1973, Carson 2000). The excretion of bupivacaine in monkeys and humans is predominantly in the urine; in rats, excretion in urine and feces is generally similar; and in dogs, only small amounts of excretion of bupivacaine in the urine have been reported.",
  "note": "Structures can show the parent of a compound that is named as a salt.",
  "data": [
    {"smiles": "CCCCN1CCCCC1C(=O)Nc1c(C)cccc1C", "note": "(stereo not shown) [bupivacaine HCl]", "values": [
      {"measurement": "Genotoxicity", "result": "no safety concerns identified"}
    ]}
  ]
}
